Laboratory results published in ChEMBL document CHEMBL1777803, “Synthesis and SAR study of tricyclic sulfones as γ-secretase inhibitors: C-6 and C-8 positions” (Bioorg Med Chem Lett, 2011).

assay: Dissociation constant, pKa of the compound in DMSO; format: physicochemical; settings: not given

pKa | SMILES
17.5 | CS(N)(=O)=O [METHANESULFONAMIDE]

same assay, conditions: DMSO; read-out: pKa

pKa | SMILES
9.7 | NS(=O)(=O)C(F)(F)F [TRIFLUOROMETHANESULFONAMIDE]

assay: Inhibition of gamma secretase-mediated Abeta40 production; settings: not given

SMILES | IC50 [nM]
O=S(=O)(NCCO[C@]12CCCC[C@@]1(S(=O)(=O)c1ccc(Cl)cc1)c1c(F)ccc(F)c1OC2)C(F)(F)F | 295
CCSCCO[C@]12CCCC[C@@]1(S(=O)(=O)c1ccc(Cl)cc1)c1c(F)ccc(F)c1OC2 | 170
CC(C)SCCO[C@]12CCCC[C@@]1(S(=O)(=O)c1ccc(Cl)cc1)c1c(F)ccc(F)c1OC2 | 180
O=S(=O)(c1ccc(Cl)cc1)[C@@]12CCC3(C[C@]1(O)COc1c(F)ccc(F)c12)OCCO3 | 2900
O=C1CC[C@@]2(S(=O)(=O)c3ccc(Cl)cc3)c3c(F)ccc(F)c3OC[C@]2(O)C1 | 3000
O=S(=O)(c1ccc(Cl)cc1)[C@@]12CC[C@H](O)C[C@]1(O)COc1c(F)ccc(F)c12 | 363
O=S(=O)(c1ccc(C(F)(F)F)cc1)[C@@]12CC[C@@H](O)C[C@]1(O)COc1c(F)ccc(F)c12 | 136
CCS(=O)(=O)CCO[C@@]12COc3c(F)ccc(F)c3[C@]1(S(=O)(=O)c1ccc(Cl)cc1)CCC1(C2)OCCO1 | 1300
CCS(=O)(=O)CCO[C@@]12COc3c(F)ccc(F)c3[C@]1(S(=O)(=O)c1ccc(Cl)cc1)CCC(=O)C2 | 160
CCS(=O)(=O)CCO[C@@]12COc3c(F)ccc(F)c3[C@]1(S(=O)(=O)c1ccc(Cl)cc1)CC[C@@H](O)C2 | 87
CC(C)S(=O)(=O)CCO[C@@]12COc3c(F)ccc(F)c3[C@]1(S(=O)(=O)c1ccc(Cl)cc1)CCC1(C2)OCCO1 | 940
CC(C)S(=O)(=O)CCO[C@@]12COc3c(F)ccc(F)c3[C@]1(S(=O)(=O)c1ccc(Cl)cc1)CCC(=O)C2 | 130
O=S(=O)(CF)N[C@@H]1CC[C@@]2(S(=O)(=O)c3ccc(Cl)cc3)c3c(F)ccc(F)c3OC[C@@]2(O)C1 | 164
O=S(=O)(N[C@@H]1CC[C@@]2(S(=O)(=O)c3ccc(Cl)cc3)c3c(F)ccc(F)c3OC[C@@]2(O)C1)C1CCC1 | 212
O=S(=O)(N[C@@H]1CC[C@@]2(S(=O)(=O)c3ccc(C(F)(F)F)cc3)c3c(F)ccc(F)c3OC[C@@]2(O)C1)C1CC1 | 173
O=S(=O)(NCCO[C@@]12COc3c(F)ccc(F)c3[C@]1(S(=O)(=O)c1ccc(Cl)cc1)CC[C@@H](O)C2)C(F)(F)F | 4100

Other lines, results leading:

IC50 [nM] | SMILES
27 | O=S(=O)(N[C@@H]1CC[C@@]2(S(=O)(=O)c3ccc(Cl)cc3)c3c(F)ccc(F)c3OC[C@H]2C1)C(F)(F)F
15 | CCS(=O)(=O)CCO[C@]12CCCC[C@@]1(S(=O)(=O)c1ccc(Cl)cc1)c1c(F)ccc(F)c1OC2
8 | CC(C)S(=O)(=O)CCO[C@]12CCCC[C@@]1(S(=O)(=O)c1ccc(Cl)cc1)c1c(F)ccc(F)c1OC2
9 | CS(=O)(=O)CCO[C@]12CCCC[C@@]1(S(=O)(=O)c1ccc(Cl)cc1)c1c(F)ccc(F)c1OC2
37 | CNS(=O)(=O)CCO[C@]12CCCC[C@@]1(S(=O)(=O)c1ccc(Cl)cc1)c1c(F)ccc(F)c1OC2
50 | CN(C)S(=O)(=O)CCO[C@]12CCCC[C@@]1(S(=O)(=O)c1ccc(Cl)cc1)c1c(F)ccc(F)c1OC2
12 | NCCO[C@]12CCCC[C@@]1(S(=O)(=O)c1ccc(Cl)cc1)c1c(F)ccc(F)c1OC2
40 | CNCCO[C@]12CCCC[C@@]1(S(=O)(=O)c1ccc(Cl)cc1)c1c(F)ccc(F)c1OC2
31 | CN(C)CCO[C@]12CCCC[C@@]1(S(=O)(=O)c1ccc(Cl)cc1)c1c(F)ccc(F)c1OC2
26 | CS(=O)(=O)NCCO[C@]12CCCC[C@@]1(S(=O)(=O)c1ccc(Cl)cc1)c1c(F)ccc(F)c1OC2
21 | O=C1CC[C@@]2(S(=O)(=O)c3ccc(Cl)cc3)c3c(F)ccc(F)c3OC[C@@]2(O)C1
21 | O=S(=O)(N[C@@H]1CC[C@@]2(S(=O)(=O)c3ccc(Cl)cc3)c3c(F)ccc(F)c3OC[C@@]2(O)C1)C(F)(F)F
28 | O=S(=O)(c1ccc(Cl)cc1)[C@@]12CC[C@@H](O)C[C@]1(O)COc1c(F)ccc(F)c12
53 | O=C1CC[C@@]2(S(=O)(=O)c3ccc(C(F)(F)F)cc3)c3c(F)ccc(F)c3OC[C@@]2(O)C1
13 | O=C1CC[C@@]2(S(=O)(=O)c3ccc(Cl)cc3)c3c(F)ccc(F)c3OC[C@H]2C1
22 | O=S(=O)(c1ccc(Cl)cc1)[C@@]12CCCC[C@@H]1COc1c(F)ccc(F)c12
52 | CC(C)S(=O)(=O)CCO[C@@]12COc3c(F)ccc(F)c3[C@]1(S(=O)(=O)c1ccc(Cl)cc1)CC[C@@H](O)C2
68 | O=S(=O)(N[C@@H]1CC[C@@]2(S(=O)(=O)c3ccc(Cl)cc3)c3c(F)ccc(F)c3OC[C@@]2(O)C1)C(F)F
29 | O=S(=O)(N[C@@H]1CC[C@@]2(S(=O)(=O)c3ccc(Cl)cc3)c3c(F)ccc(F)c3OC[C@@]2(O)C1)C1CC1
23 | O=S(=O)(N[C@@H]1CC[C@@]2(S(=O)(=O)c3ccc(C(F)(F)F)cc3)c3c(F)ccc(F)c3OC[C@@]2(O)C1)C(F)(F)F

assay: nhibition of gamma secretase-mediated Abeta42 production by cell based assay; settings: not given

IC50 [nM] | SMILES
33 | O=S(=O)(N[C@@H]1CC[C@@]2(S(=O)(=O)c3ccc(Cl)cc3)c3c(F)ccc(F)c3OC[C@@]2(O)C1)C(F)(F)F
9 | O=S(=O)(N[C@@H]1CC[C@@]2(S(=O)(=O)c3ccc(Cl)cc3)c3c(F)ccc(F)c3OC[C@@]2(O)C1)C1CC1
51 | O=S(=O)(N[C@@H]1CC[C@@]2(S(=O)(=O)c3ccc(C(F)(F)F)cc3)c3c(F)ccc(F)c3OC[C@@]2(O)C1)C(F)(F)F

assay: nhibition of gamma secretase-mediated Abeta40 production by cell based assay; settings: not given

IC50 [nM] | SMILES
11 | O=S(=O)(N[C@@H]1CC[C@@]2(S(=O)(=O)c3ccc(Cl)cc3)c3c(F)ccc(F)c3OC[C@@]2(O)C1)C(F)(F)F
3 | O=S(=O)(N[C@@H]1CC[C@@]2(S(=O)(=O)c3ccc(Cl)cc3)c3c(F)ccc(F)c3OC[C@@]2(O)C1)C1CC1
80 | O=S(=O)(N[C@@H]1CC[C@@]2(S(=O)(=O)c3ccc(C(F)(F)F)cc3)c3c(F)ccc(F)c3OC[C@@]2(O)C1)C(F)(F)F
